What follows are molecules tested against human TYK2 (JH2domain-pseudokinase) (Homo sapiens (Human), UniProt P29597) (assay: TYK2 JH2 Domain Binding Assay (KINOMEscan, DiscoveRx)). Conditions: 11-point dilution, duplicate.
In short: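 Kd from duplicate 11-point 3-fold dilutions starting at 30,000 nM, fitted by Hill equation with slope fixed at −1. Compounds (final 0.9% DMSO) displace DNA-tagged HEK293-expressed TYK2 JH2 fusion (<0.1 nM) from ligand-coated beads over 1 h at room temperature; eluted kinase read by qPCR.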

Chain of human TYK2 (JH2domain-pseudokinase) (P29597 556-888): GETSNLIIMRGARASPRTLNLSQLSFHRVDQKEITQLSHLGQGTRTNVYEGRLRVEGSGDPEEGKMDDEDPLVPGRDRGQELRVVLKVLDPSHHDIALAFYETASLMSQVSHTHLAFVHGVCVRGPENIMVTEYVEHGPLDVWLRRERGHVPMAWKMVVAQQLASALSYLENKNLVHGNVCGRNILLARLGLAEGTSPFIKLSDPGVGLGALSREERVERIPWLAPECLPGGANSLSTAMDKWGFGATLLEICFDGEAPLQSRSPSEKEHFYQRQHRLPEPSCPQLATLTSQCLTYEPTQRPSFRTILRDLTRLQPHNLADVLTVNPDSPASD

Row | SMILES | Kd [nM]
1 | Cc1nc2c(Nc3ccc(C4CCC4)cc3S(C)(=O)=O)cc(NC(=O)[C@H]3CC3(F)F)nc2[nH]1 [I-412, (R)—N-(7-((4-cyclobutyl-2-(methylsulfonyl)phenyl)amino)-2-methyl-3H-imidazo[4,5-b]pyridin-5-yl)-2,2-difluorocyclopropane-1-carboxamide] | > 10
2 | Cc1nc2c(Nc3ccc(C4CCC4)cc3S(C)(=O)=O)cc(NC(=O)[C@H]3C[C@H]3F)nc2[nH]1 [I-413, (1R,2R)—N-(7-((4-cyclobutyl-2-(methylsulfonyl)phenyl)amino)-2-methyl-3H-imidazo[4,5-b]pyridin-5-yl)-2-fluorocyclopropane-1-carboxamide] | 0.5 to 1
3 | Cc1nc(-c2ccc(Nc3cc(NC(=O)C4CC4)nc4[nH]c(C(F)F)nc34)c(S(C)(=O)=O)c2)sc1C [I-415, N-(2-(difluoromethyl)-7-((4-(4,5-dimethylthiazol-2-yl)-2-(methylsulfonyl)phenyl)amino)-3H-imidazo[4,5-b]pyridin-5-yl)cyclopropanecarboxamide] | 1 to 10
4 | Cc1ncc(Nc2cc(Nc3ccc(C4CC4)cc3S(C)(=O)=O)c3nc(C(F)F)[nH]c3n2)nc1C [I-417, N7-(4-cyclopropyl-2-(methylsulfonyl)phenyl)-2-(difluoromethyl)-N5-(5,6-dimethylpyrazin-2-yl)-3H-imidazo[4,5-b]pyridine-5,7-diamine] | 1 to 10
5 | Cc1ccc(-c2ccc(Nc3cc(NC(=O)C4CC4)nc4[nH]c(C(F)F)nc34)c(S(C)(=O)=O)c2)o1 [I-418, N-(2-(difluoromethyl)-7-((4-(5-methylfuran-2-yl)-2-(methylsulfonyl)phenyl)amino)-3H-imidazo[4,5-b]pyridin-5-yl)cyclopropanecarboxamide] | 1 to 10
6 | Cc1cc(-c2ccc(Nc3cc(NC(=O)C4CC4)nc4[nH]c(C(F)F)nc34)c(S(C)(=O)=O)c2)oc1C [I-420, N-(2-(difluoromethyl)-7-((4-(4,5-dimethylfuran-2-yl)-2-(methylsulfonyl)phenyl)amino)-3H-imidazo[4,5-b]pyridin-5-yl)cyclopropanecarboxamide] | 1 to 10
7 | Cc1nc2c(Nc3ccc([C@H]4CCCO4)cc3S(C)(=O)=O)cc(NC(=O)[C@@H]3CC3(F)F)nc2[nH]1 [I-422, (S)-2,2-difluoro-N-(2-methyl-7-((2-(methylsulfonyl)-4-((R)-tetrahydrofuran-2-yl)phenyl)amino)-3H-imidazo[4,5-b]pyridin-5-yl)cyclopropane-1-carboxamide] | 0.5 to 1
8 | Cc1nc2c(Nc3ccc([C@H]4CCCO4)cc3S(C)(=O)=O)cc(NC(=O)[C@H]3CC3(F)F)nc2[nH]1 [I-423, (R)-2,2-difluoro-N-(2-methyl-7-((2-(methylsulfonyl)-4-((R)-tetrahydrofuran-2-yl)phenyl)amino)-3H-imidazo[4,5-b]pyridin-5-yl)cyclopropane-1-carboxamide] | 1 to 10
9 | CC1(C)COC(c2ccc(Nc3cc(NC(=O)[C@@H]4C[C@@H]4F)nc4[nH]c(C(F)F)nc34)c(S(C)(=O)=O)c2)=N1 [I-428, (1S,2S)—N-(2-(difluoromethyl)-7-((4-(4,4-dimethyl-4,5-dihydrooxazol-2-yl)-2-(methylsulfonyl)phenyl)amino)-3H-imidazo[4,5-b]pyridin-5-yl)-2-fluorocyclopropane-1-carboxamide] | 1 to 10
10 | Cn1ccc(-c2ccc(Nc3cc(NC(=O)C4CC4)nc4[nH]c(C(F)F)nc34)c(P(C)(C)=O)c2)n1 [I-429, N-(2-(difluoromethyl)-7-((2-(dimethylphosphoryl)-4-(1-methyl-1H-pyrazol-3-yl)phenyl)amino)-3H-imidazo[4,5-b]pyridin-5-yl)cyclopropanecarboxamide] | < 0.1
11 | Cc1nc2c(Nc3ccc(C4CCOCC4)cc3P(C)(C)=O)cc(NC(=O)C3CC3)nc2[nH]1 [I-431, N-(7-((2-(dimethylphosphoryl)-4-(tetrahydro-2H-pyran-4-yl)phenyl)amino)-2-methyl-3H-imidazo[4,5-b]pyridin-5-yl)cyclopropanecarboxamide] | 0.5 to 1
12 | CS(=O)(=O)c1cc(C2CCC2)ccc1Nc1cc(NC(=O)[C@H]2C[C@H]2F)nc2[nH]c(C(F)F)nc12 [I-432, (1R,2R)—N-(7-((4-cyclobutyl-2-(methylsulfonyl)phenyl)amino)-2-(difluoromethyl)-3H-imidazo[4,5-b]pyridin-5-yl)-2-fluorocyclopropane-1-carboxamide] | 1 to 10
13 | Cc1cc(Nc2cc(Nc3ccc(C4CC4)cc3S(C)(=O)=O)c3nc(C)[nH]c3n2)nc(C)n1 [I-434, N7-(4-cyclopropyl-2-(methylsulfonyl)phenyl)-N5-(2,6-dimethylpyrimidin-4-yl)-2-methyl-3H-imidazo[4,5-b]pyridine-5,7-diamine] | 0.1 to 0.5
14 | Cc1nc2c(Nc3ccc(C4CC4)cc3S(C)(=O)=O)cc(Nc3cnc(C)c(C)n3)nc2[nH]1 [I-435, N7-(4-cyclopropyl-2-(methylsulfonyl)phenyl)-N5-(5,6-dimethylpyrazin-2-yl)-2-methyl-3H-imidazo[4,5-b]pyridine-5,7-diamine] | 0.1 to 0.5
15 | CS(=O)(=O)c1cc(C2CC2)ccc1Nc1cc(Nc2cc3n(n2)CCOC3)nc2[nH]c(C(F)F)nc12 [I-436, N7-(4-cyclopropyl-2-(methylsulfonyl)phenyl)-2-(difluoromethyl)-N5-(6,7-dihydro-4H-pyrazolo[5,1-c][1,4]oxazin-2-yl)-3H-imidazo[4,5-b]pyridine-5,7-diamine] | 0.1 to 0.5
16 | CS(=O)(=O)c1cc([C@@H]2CCCOC2)ccc1Nc1cc(NC(=O)[C@@H]2CC2(F)F)nc2[nH]c(C(F)F)nc12 [I-438, (S)—N-(2-(difluoromethyl)-7-((2-(methylsulfonyl)-4-((S)-tetrahydro-2H-pyran-3-yl)phenyl)amino)-3H-imidazo[4,5-b]pyridin-5-yl)-2,2-difluorocyclopropane-1-carboxamide] | 1 to 10
17 | CS(=O)(=O)c1cc([C@@H]2CCCOC2)ccc1Nc1cc(NC(=O)[C@H]2CC2(F)F)nc2[nH]c(C(F)F)nc12 [I-439, (R)—N-(2-(difluoromethyl)-7-((2-(methylsulfonyl)-4-((S)-tetrahydro-2H-pyran-3-yl)phenyl)amino)-3H-imidazo[4,5-b]pyridin-5-yl)-2,2-difluorocyclopropane-1-carboxamide] | 1 to 10

Next, values leading:

Row | Kd [nM] | SMILES
18 | 0.1 to 0.5 | Cc1nc2c(Nc3ccc(C4CCC4)cc3S(C)(=O)=O)cc(NC(=O)[C@@H]3C[C@@H]3F)nc2[nH]1 [I-414, (1S,2S)—N-(7-((4-cyclobutyl-2-(methylsulfonyl)phenyl)amino)-2-methyl-3H-imidazo[4,5-b]pyridin-5-yl)-2-fluorocyclopropane-1-carboxamide]
19 | 0.1 to 0.5 | Cc1cc(Nc2cc(Nc3ccc(C4CC4)cc3S(C)(=O)=O)c3nc(C(F)F)[nH]c3n2)nc(C)n1 [I-416, N7-(4-cyclopropyl-2-(methylsulfonyl)phenyl)-2-(difluoromethyl)-N5-(2,6-dimethylpyrimidin-4-yl)-3H-imidazo[4,5-b]pyridine-5,7-diamine]
20 | 0.1 to 0.5 | Cc1nc2c(Nc3ccc(-c4ccc(C)o4)cc3S(C)(=O)=O)cc(NC(=O)C3CC3)nc2[nH]1 [I-419, N-(2-methyl-7-((4-(5-methylfuran-2-yl)-2-(methylsulfonyl)phenyl)amino)-3H-imidazo[4,5-b]pyridin-5-yl)cyclopropanecarboxamide]
21 | 0.1 to 0.5 | Cc1nc2c(Nc3ccc(-c4cc(C)c(C)o4)cc3S(C)(=O)=O)cc(NC(=O)C3CC3)nc2[nH]1 [I-421, N-(7-((4-(4,5-dimethylfuran-2-yl)-2-(methylsulfonyl)phenyl)amino)-2-methyl-3H-imidazo[4,5-b]pyridin-5-yl)cyclopropanecarboxamide]
22 | < 0.1 | CS(=O)(=O)c1cc([C@@H]2CCCO2)ccc1Nc1cc(NC(=O)C2CC2)nc2[nH]c(C(F)F)nc12 [I-424, (S)—N-(2-(difluoromethyl)-7-((2-(methylsulfonyl)-4-(tetrahydrofuran-2-yl)phenyl)amino)-3H-imidazo[4,5-b]pyridin-5-yl)cyclopropanecarboxamide]
23 | 0.1 to 0.5 | CS(=O)(=O)c1cc([C@H]2CCCO2)ccc1Nc1cc(NC(=O)C2CC2)nc2[nH]c(C(F)F)nc12 [I-425, (R)—N-(2-(difluoromethyl)-7-((2-(methylsulfonyl)-4-(tetrahydrofuran-2-yl)phenyl)amino)-3H-imidazo[4,5-b]pyridin-5-yl)cyclopropanecarboxamide]
24 | 0.1 to 0.5 | Cc1nc2c(Nc3ccc([C@@H]4CCCO4)cc3S(C)(=O)=O)cc(NC(=O)[C@@H]3CC3(F)F)nc2[nH]1 [I-426, (S)-2,2-difluoro-N-(2-methyl-7-((2-(methylsulfonyl)-4-((S)-tetrahydrofuran-2-yl)phenyl)amino)-3H-imidazo[4,5-b]pyridin-5-yl)cyclopropane-1-carboxamide]
25 | 0.1 to 0.5 | Cc1nc2c(Nc3ccc([C@@H]4CCCO4)cc3S(C)(=O)=O)cc(NC(=O)[C@H]3CC3(F)F)nc2[nH]1 [I-427, (R)-2,2-difluoro-N-(2-methyl-7-((2-(methylsulfonyl)-4-((S)-tetrahydrofuran-2-yl)phenyl)amino)-3H-imidazo[4,5-b]pyridin-5-yl)cyclopropane-1-carboxamide]
26 | 0.1 to 0.5 | Cc1nc2c(Nc3ccc(-c4ccn(C)n4)cc3P(C)(C)=O)cc(NC(=O)C3CC3)nc2[nH]1 [I-430, N-(7-((2-(dimethylphosphoryl)-4-(1-methyl-1H-pyrazol-3-yl)phenyl)amino)-2-methyl-3H-imidazo[4,5-b]pyridin-5-yl)cyclopropanecarboxamide]
27 | 0.1 to 0.5 | CS(=O)(=O)c1cc(C2CCC2)ccc1Nc1cc(NC(=O)[C@@H]2C[C@@H]2F)nc2[nH]c(C(F)F)nc12 [I-433, (1S, 2S)—N-(7-((4-cyclobutyl-2-(methylsulfonyl)phenyl)amino)-2-(difluoromethyl)-3H-imidazo[4,5-b]pyridin-5-yl)-2-fluorocyclopropane-1-carboxamide]
28 | < 0.1 | Cc1nc2c(Nc3ccc(C4CC4)cc3S(C)(=O)=O)cc(Nc3cc4n(n3)CCOC4)nc2[nH]1 [I-437, N7-(4-cyclopropyl-2-(methylsulfonyl)phenyl)-N5-(6,7-dihydro-4H-pyrazolo[5,1-c][1,4]oxazin-2-yl)-2-methyl-3H-imidazo[4,5-b]pyridine-5,7-diamine]
